According to US20260297070A1, “CYCLIC [COMPOUND LEFT OUT] WRN INHIBITORS” (Nimbus Wadjet, Inc., priority 2023, published 2026):

target: T1, human Werner helicase (WRN-BV08, Uniprot Q14191, amino acids 517-1235 with L1074F point mutation) (Homo sapiens, UniProt Q14191, L1074F); assay: WRN (BV08) ADP-Glo Assay; format: biochemical; conditions: 0.15 nM WRN, 5 μM ATP, 0.1 nM DNA duplex, 15 min preincubation, 60 min at 25° C., pH 7.5, 1% DMSO; read-out: ADP-Glo_hWRN_IC50
T1 construct: Uniprot Q14191, amino acids 517-1235 with L1074F point mutation; TEV-cleavable 8×His (C, cleaved yes); made in house; host or cells: Sf9 insect cells (baculovirus)
T1 sequence (Q14191 with tags, fused parts or gaps L1074F limits assumed): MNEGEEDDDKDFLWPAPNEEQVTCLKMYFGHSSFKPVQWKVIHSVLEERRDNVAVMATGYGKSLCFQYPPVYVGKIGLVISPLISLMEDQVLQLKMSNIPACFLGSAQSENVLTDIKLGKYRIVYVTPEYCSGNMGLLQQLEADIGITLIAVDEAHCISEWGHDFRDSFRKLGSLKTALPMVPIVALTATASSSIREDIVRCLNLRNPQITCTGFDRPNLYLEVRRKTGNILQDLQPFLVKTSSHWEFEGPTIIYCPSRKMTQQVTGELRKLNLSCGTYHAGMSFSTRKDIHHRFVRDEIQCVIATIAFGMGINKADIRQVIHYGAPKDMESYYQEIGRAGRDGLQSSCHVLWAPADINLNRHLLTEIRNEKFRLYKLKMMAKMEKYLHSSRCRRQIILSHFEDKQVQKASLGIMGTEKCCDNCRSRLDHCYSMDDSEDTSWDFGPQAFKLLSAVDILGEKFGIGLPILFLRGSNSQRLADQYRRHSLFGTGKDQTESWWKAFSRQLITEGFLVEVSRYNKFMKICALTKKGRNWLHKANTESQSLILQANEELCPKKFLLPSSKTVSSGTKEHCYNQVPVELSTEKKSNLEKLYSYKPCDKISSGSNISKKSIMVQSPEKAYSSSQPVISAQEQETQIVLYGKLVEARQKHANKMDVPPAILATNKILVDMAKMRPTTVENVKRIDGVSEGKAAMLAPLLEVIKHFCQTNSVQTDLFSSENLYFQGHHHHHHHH
Summary of the method: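 Percent inhibition was normalised to DMSO (max) and 20 μM NSC-617145 (min) controls from ADP-Glo luminescence, and IC50 values came from a four-parameter fit. The reaction ran 60 min at 25 °C with 0.15 nM WRN, 5 μM ATP and 0.1 nM duplex DNA.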

SMILES	IC50 [µM]
COc1cc(CN(C(=O)C2CN(C)c3cc(-c4ccc(F)cc4)ccc32)C2C=CS(=O)(=O)C2)ccn1 (centres unmarked) [I-385, N-(1,1-dioxo-2,3-dihydro-1lambda6-thiophen-3-yl)-6-(4-fluorophenyl)-N-[(2-methoxypyridin-4-yl)methyl]-1-methyl-2,3-dihydro-1H-indole-3-carboxamide]	> 50
O=C([C@H]1C[C@@H](c2ccccc2)C1)N(Cc1ccncc1)C1C=CS(=O)(=O)C1 (some centres unmarked) [I-611, (1s,3s)-N-(1,1-dioxo-2,3-dihydro-1lambda6-thiophen-3-yl)-3-phenyl-N-[(pyridin-4-yl)methyl]cyclobutane-1-carboxamide]	> 50
O=C(CC1CCC(c2ccccc2)CC1)N(Cc1ccncc1)C1C=CS(=O)(=O)C1 (centres unmarked) [I-416, N-(1,1-dioxo-2,3-dihydro-1lambda6-thiophen-3-yl)-2-(4-phenylcyclohexyl)-N-[(pyridin-4-yl)methyl]acetamide]	> 50
CC(C)(C)OC(=O)N1CC(C(=O)N(Cc2ccncc2)C2C=CS(=O)(=O)C2)c2ccc(-c3ccc(F)cc3)cc21 (centres unmarked) [I-569, tert-butyl 3-[(1,1-dioxo-2,3-dihydro-1lambda6-thiophen-3-yl)[(pyridin-4-yl)methyl]carbamoyl]-6-(4-fluorophenyl)-2,3-dihydro-1H-indole-1-carboxylate]	> 50
COc1cc(CN(C(=O)C(OC2CS(=O)(=O)C2)c2ccc(-c3ccc(F)c(F)c3)cc2F)[C@@H]2C=CS(=O)(=O)C2)ccn1 (stereo partly drawn) [I-833, 2-[(1,1-dioxo-1lambda6-thietan-3-yl)oxy]-N-[(3R)-1,1-dioxo-2,3-dihydro-1lambda6-thiophen-3-yl]-N-[(2-methoxypyridin-4-yl)methyl]-2-{3,3′,4′-trifluoro-[1,1′-biphenyl]-4-yl}acetamide]	10 to 50
O=C(CCc1c[nH]c2cc(Br)ccc12)N(Cc1ccncc1)C1C=CS(=O)(=O)C1 (centres unmarked) [I-304, 3-(6-bromo-1H-indol-3-yl)-N-(1,1-dioxo-2,3-dihydro-1lambda6-thiophen-3-yl)-N-[(pyridin-4-yl)methyl]propanamide]	10 to 50
O=C([C@@H]1[C@@H]2CC[C@@]1(c1cccc(Br)c1)C2)N(Cc1ccncc1)C1C=CS(=O)(=O)C1 (mixture of isomers) [I-755, rac-(1R,4R,5R)-1-(3-bromophenyl)-N-(1,1-dioxo-2,3-dihydro-1lambda6-thiophen-3-yl)-N-[(pyridin-4-yl)methyl]bicyclo[2.1.1]hexane-5-carboxamide]	> 50
O=C(Cc1cccc2ccccc12)N(Cc1ccncc1)C1C=CS(=O)(=O)C1 (centres unmarked) [I-431, N-(1,1-dioxo-2,3-dihydro-1lambda6-thiophen-3-yl)-2-(naphthalen-1-yl)-N-[(pyridin-4-yl)methyl]acetamide]	> 50
O=C(Cc1ccc(-n2cccc2)cc1)N(c1c[nH]c2ncc(F)cc12)C1C=CS(=O)(=O)C1 (centres unmarked) [I-479, N-(1,1-dioxo-2,3-dihydro-1lambda6-thiophen-3-yl)-N-{5-fluoro-1H-pyrrolo[2,3-b]pyridin-3-yl}-2-[4-(1H-pyrrol-1-yl)phenyl]acetamide]	> 50
O=C(Cc1ccc(-n2cccc2)cc1)N(Cc1ccncc1Cl)C1C=CS(=O)(=O)C1 (centres unmarked) [I-228, N-[(3-chloropyridin-4-yl)methyl]-N-(1,1-dioxo-2,3-dihydro-1lambda6-thiophen-3-yl)-2-[4-(1H-pyrrol-1-yl)phenyl]acetamide]	5 to 10
O=C(Cc1ccc(CC(F)(F)F)cc1)N(Cc1ccncc1)C1C=CS(=O)(=O)C1 (centres unmarked) [I-263, N-(1,1-dioxo-2,3-dihydro-1lambda6-thiophen-3-yl)-N-[(pyridin-4-yl)methyl]-2-[4-(2,2,2-trifluoroethyl)phenyl]acetamide]	5 to 10
O=C(Cc1ccc(-c2ccc(F)cc2C(F)F)cc1)N(Cc1ccncc1)C1C=CS(=O)(=O)C1 (centres unmarked) [I-334, 2-[2′-(difluoromethyl)-4′-fluoro-[1,1′-biphenyl]-4-yl]-N-(1,1-dioxo-2,3-dihydro-1lambda6-thiophen-3-yl)-N-[(pyridin-4-yl)methyl]acetamide]	10 to 50
O=C(C1CC(c2ccc(F)cc2)C1)N(Cc1ccncc1)C1C=CS(=O)(=O)C1 (centres unmarked) [I-614, N-(1,1-dioxo-2,3-dihydro-1lambda6-thiophen-3-yl)-3-(4-fluorophenyl)-N-[(pyridin-4-yl)methyl]cyclobutane-1-carboxamide]	> 50

Further lines, results first:

IC50 [µM]	SMILES
0.5 to 5	COc1cc(CN(C(=O)C(OCc2cnn(C)c2)c2ccc(-c3ccc(F)c(F)c3)cc2F)[C@@H]2C=CS(=O)(=O)C2)ccn1 (stereo partly drawn) [I-745, N-[(3R)-1,1-dioxo-2,3-dihydro-1lambda6-thiophen-3-yl]-N-[(2-methoxypyridin-4-yl)methyl]-2-[(1-methyl-1H-pyrazol-4-yl)methoxy]-2-{3,3′,4′-trifluoro-[1,1′-biphenyl]-4-yl}acetamide]
< 0.5	COc1cc(CN(C(=O)C(c2ccc(-c3ccc(F)c(F)c3)cc2F)n2cc(OC(F)F)cn2)[C@@H]2C=CS(=O)(=O)C2)ccn1 (stereo partly drawn) [I-695, 2-[4-(difluoromethoxy)-1H-pyrazol-1-yl]-N-[(3R)-1,1-dioxo-2,3-dihydro-1lambda6-thiophen-3-yl]-N-[(2-methoxypyridin-4-yl)methyl]-2-{3,3′,4′-trifluoro-[1,1′-biphenyl]-4-yl}acetamide]
5 to 10	O=C(Cc1ccc(-c2ccsc2)cc1)N(Cc1ccncc1)C1C=CS(=O)(=O)C1 (centres unmarked) [I-248, N-(1,1-dioxo-2,3-dihydro-1lambda6-thiophen-3-yl)-N-[(pyridin-4-yl)methyl]-2-[4-(thiophen-3-yl)phenyl]acetamide]
0.5 to 5	O=C(Cn1cc(-c2ccc(F)c(F)c2)cn1)N(Cc1nc(C2CC2)cs1)C1C=CS(=O)(=O)C1 (single isomer, unassigned) [I-604]
< 0.5	CC(C)(O)c1csc(CN(C(=O)Cc2ccc(-c3ccc(F)cc3)cc2F)C2C=CS(=O)(=O)C2)n1 (centres unmarked) [I-79, 2-(3,4′-difluoro-[1,1′-biphenyl]-4-yl)-N-(1,1-dioxido-2,3-dihydrothiophen-3-yl)-N-((4-(2-hydroxypropan-2-yl)thiazol-2-yl)methyl)acetamide]
< 0.5	COc1cc(CN(C(=O)Cn2cc(-c3ccc(Cl)cc3)cn2)C2C=CS(=O)(=O)C2)ccn1 (centres unmarked) [I-85, 2-[4-(4-chlorophenyl)-1H-pyrazol-1-yl]-N-(1,1-dioxo-2,3-dihydro-1lambda6-thiophen-3-yl)-N-[(2-methoxypyridin-4-yl)methyl]acetamide]
5 to 10	COc1cc(CN(C(=O)Cc2c(F)cc(-n3cccc3C)cc2F)C2C=CS(=O)(=O)C2)ccn1 (centres unmarked) [I-241, 2-[2,6-difluoro-4-(2-methyl-1H-pyrrol-1-yl)phenyl]-N-(1,1-dioxo-2,3-dihydro-1lambda6-thiophen-3-yl)-N-[(2-methoxypyridin-4-yl)methyl]acetamide]
0.5 to 5	CC(C)(N)c1ccc(CN(C(=O)Cn2cc(-c3ccc(F)c(F)c3)cn2)C2C=CS(=O)(=O)C2)cc1 (centres unmarked) [I-795, N-{[4-(2-aminopropan-2-yl)phenyl]methyl}-2-[4-(3,4-difluorophenyl)-1H-pyrazol-1-yl]-N-(1,1-dioxo-2,3-dihydro-1lambda6-thiophen-3-yl)acetamide]
< 0.5	CC(C)(O)c1cc(CN(C(=O)C(F)(F)c2ccc(-c3ccc(F)c(F)c3)cc2F)[C@@H]2C=CS(=O)(=O)C2)ccn1 [I-38, (R)—N-(1,1-dioxido-2,3-dihydrothiophen-3-yl)-2,2-difluoro-N-((2-(2-hydroxypropan-2-yl)pyridin-4-yl)methyl)-2-(3,3′,4′-trifluoro-[1,1′-biphenyl]-4-yl)acetamide]
0.5 to 5	O=C(Cn1cc2ccc(C(F)(F)F)cc2n1)N(Cc1ccncc1)C1C=CS(=O)(=O)C1 (centres unmarked) [I-183, N-(1,1-dioxo-2,3-dihydro-1lambda6-thiophen-3-yl)-N-[(pyridin-4-yl)methyl]-2-[6-(trifluoromethyl)-2H-indazol-2-yl]acetamide]
0.5 to 5	O=C(c1ccc(CN(C(=O)Cc2ccc(-c3ccc(F)c(F)c3)cc2F)C2C=CS(=O)(=O)C2)cc1)N1CCCCC1 (centres unmarked) [I-796, N-(1,1-dioxo-2,3-dihydro-1lambda6-thiophen-3-yl)-N-{[4-(piperidine-1-carbonyl)phenyl]methyl}-2-{3,3′,4′-trifluoro-[1,1′-biphenyl]-4-yl}acetamide]
0.5 to 5	COc1ccc2sc(CN(C(=O)Cc3ccc(-n4cccc4)cc3)C3C=CS(=O)(=O)C3)nc2c1 (centres unmarked) [I-102, N-(1,1-dioxo-2,3-dihydro-1lambda6-thiophen-3-yl)-N-[(5-methoxy-1,3-benzothiazol-2-yl)methyl]-2-[4-(1H-pyrrol-1-yl)phenyl]acetamide]
< 0.5	COC(C(=O)N(Cc1ccnc(C(C)(C)O)c1)[C@@H]1C=CS(=O)(=O)C1)c1ccc(-c2ccc(F)c(F)c2)cc1F (single isomer, unassigned) [I-2]
0.5 to 5	CC(C)(O)c1cc(CN(C(=O)Cc2ccc(S(F)(F)(F)(F)F)cc2)[C@H]2C=CS(=O)(=O)C2)ccn1 [I-230, N-[(3S)-1,1-dioxo-2,3-dihydro-1lambda6-thiophen-3-yl]-N-{[2-(2-hydroxypropan-2-yl)pyridin-4-yl]methyl}-2-[4-(pentafluoro-lambda6-sulfanyl)phenyl]acetamide]
< 0.5	CC(C)(O)c1cc(CN(C(=O)Cn2ncc(-c3cc(F)c(F)c(F)c3)c2Cl)C2C=CS(=O)(=O)C2)ccn1 (single isomer, unassigned) [I-773]
0.5 to 5	CN(C)C(=O)C(C(=O)N(Cc1ccncc1)C1C=CS(=O)(=O)C1)c1ccc(-c2ccc(F)cc2)cc1 (centres unmarked) [I-104, N′-(1,1-dioxo-2,3-dihydro-1lambda6-thiophen-3-yl)-2-{4′-fluoro-[1,1′-biphenyl]-4-yl}-N,N-dimethyl-N′-[(pyridin-4-yl)methyl]propanediamide]
